Assay results reported in patent US7462600B2, “Macrolides” (Pfizer Inc, priority 2004, dated 2008).
Converted amounts (≈) assume the structure as drawn.

What was measured:
Assay type in all cases: cell-based
[1] = system: Streptococcus pneumoniae 1095; settings: Streptococcus pneumoniae 1095; microtiter broth dilution
In short: (§1)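 Panel strains, including macrolide-resistant isolates and their susceptible parents where available, are exposed to serial compound dilutions in microtiter trays. Growth inhibition is scored as MIC under NCCLS M100-S14 standards.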

[2] = system: Streptococcus pneumoniae 1175; settings: Streptococcus pneumoniae 1175; microtiter broth dilution
In short: as §1

[3] = system: Streptococcus pyogenes 1079; assay: MIC, microtiter broth dilution (NCCLS M100-S14), S. pyogenes 1079 (ermB); settings: Streptococcus pyogenes 1079
In short: as §1

[4] = system: Haemophilus influenzae 1218; assay: MIC, microtiter broth dilution (NCCLS M100-S14), H. influenzae 1218 (susceptible); settings: Haemophilus influenzae 1218
In short: as §1

[5] = system: Streptococcus pneumoniae 1016; assay: MIC, microtiter broth dilution (NCCLS M100-S14), S. pneumoniae 1016 (susceptible); settings: Streptococcus pneumoniae 1016
In short: as §1

SMILES	MIC S. pneumo. 1095 [1]	MIC S. pneumo. 1175 [2]	MIC S. pyogenes 1079 [3]	MIC H. influenzae 1218 [4]	MIC S. pneumo. 1016 [5]
CCC1OC(=O)C(C)C(=O)C(C)C(OC2OC(C)CC(N(C)C)C2O)C(C)(OC)CC(C)C(=O)C(C)C2N(CC3CN(Cc4cccc5cccnc45)C3)C(=O)OC12C.O=CO (stereo not drawn) [4.36]	0.25 µg/mL	<0.06 µg/mL	>64.00 µg/mL	<0.06 µg/mL	<0.06 µg/mL
CCC1OC(=O)C(C)C(=O)C(C)C(OC2OC(C)CC(N(C)C)C2O)C(C)(OC)CC(C)C(=O)C(C)C2N(CC3CN(C(=O)c4ccnc5ccccc45)C3)C(=O)OC12C.O=CO (stereo not drawn) [4.37]	0.25 µg/mL	<0.06 µg/mL	>64.00 µg/mL	0.5 µg/mL	<0.06 µg/mL
CCC1OC(=O)C(C)C(=O)C(C)C(OC2OC(C)CC(N(C)C)C2O)C(C)(OC)CC(C)C(=O)C(C)C2N(CC3CN(C(=O)c4cnc5ccccc5c4)C3)C(=O)OC12C.O=CO (stereo not drawn) [4.38]	2 µg/mL	<0.06 µg/mL	>64.00 µg/mL	2 µg/mL	<0.06 µg/mL
CCC1OC(=O)C(C)C(=O)C(C)C(OC2OC(C)CC(N(C)C)C2O)C(C)(OC)CC(C)C(=O)C(C)C2N(CC3CN(C(=O)c4cc5ccccc5cn4)C3)C(=O)OC12C.O=CO (stereo not drawn) [4.39]	8 µg/mL	<0.06 µg/mL	>64.00 µg/mL	4 µg/mL	<0.06 µg/mL
CCC1OC(=O)C(C)C(=O)C(C)C(OC2OC(C)CC(N(C)C)C2O)C(C)(OC)CC(C)C(=O)C(C)C2N(CC3CN(C(=O)c4ccc5cccnc5n4)C3)C(=O)OC12C.O=CO (stereo not drawn) [4.40]	8 µg/mL	0.5 µg/mL	>64.00 µg/mL	4 µg/mL	<0.06 µg/mL
CCC1OC(=O)C(C)C(=O)C(C)C(OC2OC(C)CC(N(C)C)C2O)C(C)(OC)CC(C)C(=O)C(C)C2N(CC3CN(C(=O)c4ccc5cnccc5n4)C3)C(=O)OC12C.O=CO (stereo not drawn) [4.41]	0.25 µg/mL	<0.06 µg/mL	>64.00 µg/mL	2 µg/mL	<0.06 µg/mL
CCC1OC(=O)C(C)C(=O)C(C)C(OC2OC(C)CC(N(C)C)C2O)C(C)(OC)CC(C)C(=O)C(C)C2N(CC3CN(Cc4cnn5ccccc45)C3)C(=O)OC12C.O=CO (stereo not drawn) [4.42]	0.5 µg/mL	<0.06 µg/mL	>64.00 µg/mL	0.12 µg/mL	<0.06 µg/mL
CCC1OC(=O)C(C)C(=O)C(C)C(OC2OC(C)CC(N(C)C)C2O)C(C)(OC)CC(C)C(=O)C(C)C2N(CC3CN(Cc4n[nH]c5ncccc45)C3)C(=O)OC12C.O=CO (stereo not drawn) [4.43]	0.12 µg/mL	1 µg/mL	>64.00 µg/mL	0.25 µg/mL	<0.06 µg/mL
CCC1OC(=O)C(C)C(=O)C(C)C(OC2OC(C)CC(N(C)C)C2O)C(C)(OC)CC(C)C(=O)C(C)C2N(CC3CN(C(=O)c4ccnc5nc[nH]c45)C3)C(=O)OC12C.O=CO (stereo not drawn) [4.45]	>64.00 µg/mL	4 µg/mL	>64.00 µg/mL	16 µg/mL	<0.06 µg/mL
CCC1OC(=O)C(C)C(=O)C(C)C(OC2OC(C)CC(N(C)C)C2O)C(C)(OC)CC(C)C(=O)C(C)C2N(CC3CN(C(=O)c4cccc5ncoc45)C3)C(=O)OC12C.O=CO (stereo not drawn) [4.46]	0.5 µg/mL	<0.06 µg/mL	64 µg/mL	1 µg/mL	<0.06 µg/mL
CCC1OC(=O)C(C)C(=O)C(C)C(OC2OC(C)CC(N(C)C)C2O)C(C)(OC)CC(C)C(=O)C(C)C2N(CC3CN(C(=O)c4cncc5ccccc45)C3)C(=O)OC12C.O=CO (stereo not drawn) [4.47]	0.19 µg/mL	0.12 µg/mL	>64.00 µg/mL	0.75 µg/mL	<0.06 µg/mL
CC[C@H]1OC(=O)[C@H](C)C(=O)[C@H](C)[C@@H](O[C@@H]2O[C@H](C)C[C@H](N(C)C)[C@H]2O)[C@](C)(OC)C[C@@H](C)C(=O)[C@H](C)[C@H]2N(CC3(C)CN(Cc4ccc5ncccc5c4)C3)C(=O)O[C@]12C [6.01]	0.5 µg/mL (≈ 0.597 µM)	0.5 µg/mL (≈ 0.597 µM)	>64.00 µg/mL	1 µg/mL (≈ 1.19 µM)	<0.06 µg/mL
CC[C@H]1OC(=O)[C@H](C)C(=O)[C@H](C)[C@@H](O[C@@H]2O[C@H](C)C[C@H](N(C)C)[C@H]2O)[C@](C)(OC)C[C@@H](C)C(=O)[C@H](C)[C@H]2N(CC3(C)CN(Cc4cccc5ncccc45)C3)C(=O)O[C@]12C [6.02]	<0.06 µg/mL	0.25 µg/mL (≈ 0.299 µM)	32 µg/mL (≈ 38.2 µM)	2 µg/mL (≈ 2.39 µM)	<0.06 µg/mL
CC[C@H]1OC(=O)[C@H](C)C(=O)[C@H](C)[C@@H](O[C@@H]2O[C@H](C)C[C@H](N(C)C)[C@H]2O)[C@](C)(OC)C[C@@H](C)C(=O)[C@H](C)[C@H]2N(CC3(C)CN(Cc4c[nH]c5ncccc45)C3)C(=O)O[C@]12C [6.03]	<0.06 µg/mL	0.12 µg/mL (≈ 0.145 µM)	16 µg/mL (≈ 19.4 µM)	0.5 µg/mL (≈ 0.605 µM)	<0.06 µg/mL
CC[C@H]1OC(=O)[C@H](C)C(=O)[C@H](C)[C@@H](O[C@@H]2O[C@H](C)C[C@H](N(C)C)[C@H]2O)[C@](C)(OC)C[C@@H](C)C(=O)[C@H](C)[C@H]2N(CC3(C)CN(Cc4ccc5nccnc5c4)C3)C(=O)O[C@]12C [6.04]	0.25 µg/mL (≈ 0.298 µM)	0.25 µg/mL (≈ 0.298 µM)	>64.00 µg/mL	1 µg/mL (≈ 1.19 µM)	<0.06 µg/mL
CC[C@H]1OC(=O)[C@H](C)C(=O)[C@H](C)[C@@H](O[C@@H]2O[C@H](C)C[C@H](N(C)C)[C@H]2O)[C@](C)(OC)C[C@@H](C)C(=O)[C@H](C)[C@H]2N(CC3(C)CN(Cc4cccc5nccnc45)C3)C(=O)O[C@]12C [6.05]	<0.06 µg/mL	0.12 µg/mL (≈ 0.143 µM)	>64.00 µg/mL	1 µg/mL (≈ 1.19 µM)	<0.06 µg/mL
CC[C@H]1OC(=O)[C@H](C)C(=O)[C@H](C)[C@@H](O[C@@H]2O[C@H](C)C[C@H](N(C)C)[C@H]2O)[C@](C)(OC)C[C@@H](C)C(=O)[C@H](C)[C@H]2N(CC3(C)CN(Cc4ccc5cccnc5c4)C3)C(=O)O[C@]12C [6.06]	0.5 µg/mL (≈ 0.597 µM)	0.5 µg/mL (≈ 0.597 µM)	>64.00 µg/mL	1 µg/mL (≈ 1.19 µM)	<0.06 µg/mL
CC[C@H]1OC(=O)[C@H](C)C(=O)[C@H](C)[C@@H](O[C@@H]2O[C@H](C)C[C@H](N(C)C)[C@H]2O)[C@](C)(OC)C[C@@H](C)C(=O)[C@H](C)[C@H]2N(CC3(C)CN(Cc4cnc5ccccc5n4)C3)C(=O)O[C@]12C [6.07]	1 µg/mL (≈ 1.19 µM)	0.5 µg/mL (≈ 0.597 µM)	>64.00 µg/mL	4 µg/mL (≈ 4.77 µM)	<0.06 µg/mL
